Measurements reported in patent US4248887A, “Antibacterial compounds, processes for their preparation and compositions containing them” (priority 1978, dated 1981).
In brackets after ≈: the same amount, converted by molar mass. Like-named read-outs stand apart in the source and are kept apart here.

Assays:
[1] = tested on: M. suipneumoniae Str. 11; experiment: Anti-mycoplasma MIC; assay type: cell-based; conditions: Mesomycoplasma hyopneumoniae
[2] = tested on: M. suipneumoniae J2206/183b; experiment: Anti-mycoplasma MIC; assay type: cell-based; conditions: Mesomycoplasma hyopneumoniae
[3] = tested on: M. dispar H225; experiment: Anti-mycoplasma MIC; assay type: cell-based; conditions: M. dispar H225; Broth (Friis' broth, microtiter method); read-out: MIC
[4] = tested on: M. dispar NCTC 10125; experiment: Anti-mycoplasma MIC; assay type: cell-based; conditions: M. dispar NCTC 10125; Broth (Friis' broth, microtiter method); read-out: MIC
[5] = tested on: M. pneumoniae 427a; experiment: Anti-mycoplasma MIC; assay type: cell-based; conditions: Mycoplasmoides pneumoniae, read-out: MIC
[6] = tested on: M. pneumoniae ATCC 15492; experiment: Anti-mycoplasma MIC; assay type: cell-based; conditions: Mycoplasmoides pneumoniae, ATCC15492, M. pneumoniae ATCC 15492, read-out: MIC
[7] = tested on: M. bovis ATCC 25025; experiment: microbe, parasite or virus in culture; assay type: cell-based; conditions: ATCC25025
[8] = tested on: M. bovis NCTC 10131; experiment: microbe, parasite or virus in culture; assay type: cell-based; conditions: NCTC10131
[9] = tested on: M. fermentans MWKL4; experiment: Anti-mycoplasma MIC; assay type: cell-based; conditions: Mycoplasmopsis fermentans, read-out: MIC
[10] = tested on: M. pulmonis JB; experiment: Anti-mycoplasma MIC; assay type: cell-based; conditions: Mycoplasmopsis pulmonis, read-out: MIC
[11] = tested on: M. hyorhinis ATCC 23234; experiment: Anti-mycoplasma MIC; assay type: cell-based; conditions: Mesomycoplasma hyorhinis, ATCC23234; M. hyorhinis ATCC 23234; Agar (serial dilution in Friis' agar); read-out: MIC
[12] = tested on: M. hyosynoviae ATCC 25591; experiment: Anti-mycoplasma MIC; assay type: cell-based; conditions: M. hyosynoviae ATCC 25591; Agar (serial dilution in Friis' agar); read-out: MIC
[13] = tested on: M. arthritidis ATCC 14124; experiment: Anti-mycoplasma MIC; assay type: cell-based; conditions: M. arthritidis ATCC 14124; Agar (serial dilution in Friis' agar); read-out: MIC
[14] = tested on: M. gallisepticum S6; experiment: Anti-mycoplasma MIC; assay type: cell-based; conditions: Mycoplasmoides gallisepticum; M. gallisepticum S6; Agar (serial dilution in Friis' agar); read-out: MIC
[15] = tested on: M. synoviae ATCC 25204; experiment: Anti-mycoplasma MIC; assay type: cell-based; conditions: Mycoplasmopsis synoviae, ATCC25204; M. synoviae ATCC 25204; Agar (serial dilution in Friis' agar); read-out: MIC
[16] = tested on: M. alkalescens NCTC 10135; experiment: Anti-mycoplasma MIC; assay type: cell-based
[17] = tested on: M. bovigenitalium ATCC 14173; experiment: Anti-mycoplasma MIC; assay type: cell-based; conditions: M. bovigenitalium ATCC 14173; Agar (serial dilution in Friis' agar); read-out: MIC
[18] = tested on: Bord. bronchiseptica BO8; experiment: MIC against veterinary bacteria; conditions: Bordetella bronchiseptica
[19] = tested on: Bord. bronchiseptica BO9; experiment: MIC against veterinary bacteria; conditions: Bordetella bronchiseptica
[20] = tested on: Past. multocida PA1; experiment: MIC against veterinary bacteria; conditions: Pasteurella multocida
[21] = tested on: Past. multocida PA2; experiment: MIC against veterinary bacteria; conditions: Pasteurella multocida
[22] = tested on: Past. haemolytica PA5; experiment: MIC against veterinary bacteria; conditions: Mannheimia haemolytica
[23] = tested on: Staph. aureus B4 (pen resistant); experiment: MIC against veterinary bacteria; conditions: Staphylococcus aureus
[24] = tested on: Staph. aureus 152 (pen sensitive); experiment: MIC against veterinary bacteria; conditions: Staphylococcus aureus
[25] = tested on: Strep. uberis SPU1; experiment: MIC against veterinary bacteria; conditions: Streptococcus uberis
[26] = tested on: Strep. dysgalactiae SPD1; experiment: MIC against veterinary bacteria; conditions: Streptococcus dysgalactiae
[27] = tested on: Strep. agalactiae SPA1; experiment: MIC against veterinary bacteria; conditions: Streptococcus agalactiae
[28] = tested on: Past. multocida 1633; experiment: MIC by serial dilution in nutrient agar (human bacteria); conditions: Pasteurella multocida
[29] = tested on: H. influenzae Q1; experiment: as above; conditions: Haemophilus influenzae
[30] = tested on: N. catarrhalis 1502; experiment: as above; conditions: Neisseria
[31] = tested on: B. subtilis; experiment: as above; conditions: Bacillus subtilis
[32] = tested on: Staph. aureus Oxford; experiment: as above; conditions: Staphylococcus aureus
[33] = tested on: Staph. aureus Russell; experiment: as above; conditions: Staphylococcus aureus
[34] = tested on: Strep. pyogenes A 64/848; experiment: as above; conditions: Streptococcus pyogenes, A64/848
[35] = tested on: Strep. pyogenes B 2788; experiment: as above; conditions: Streptococcus pyogenes, B2788
[36] = tested on: Strep. pyogenes C 2761; experiment: as above; conditions: Streptococcus pyogenes, C2761
[37] = tested on: Strep. pneumoniae CN33; experiment: as above; conditions: Streptococcus pneumoniae
[38] = tested on: H. influenzae Wy21; experiment: as above; conditions: Haemophilus influenzae
[39] = Agar (serial dilution in Friis' agar)
[40] = Broth (Friis' broth, microtiter method)

SMILES: C=CCOC(=O)/C=C(\C)CC1OCC(C/C=C/C(C)C(C)O)C(O)C1O (centres unmarked) [Allyl, Allyl Monate C]
- MIC ([1]; M. suipneumoniae Str. 11, Broth (Friis' broth, microtiter method), read-out: MIC): 0.312 µg/mL (≈ 0.847 µM)
- MIC ([2]; M. suipneumoniae J2206/183b, Broth (Friis' broth, microtiter method), read-out: MIC): 1.25 µg/mL (≈ 3.39 µM)
- MIC [3]: 0.078 µg/mL (≈ 0.212 µM)
- MIC [4]: 0.156 µg/mL (≈ 0.423 µM)
- MIC [5, 39]: 5 µg/mL (≈ 13.6 µM)
- MIC [5, 40]: 10 µg/mL (≈ 27.1 µM)
- MIC [6, 39]: 10 µg/mL (≈ 27.1 µM)
- MIC [6, 40]: 10 µg/mL (≈ 27.1 µM)
- MIC [7]: 0.078 µg/mL (≈ 0.212 µM)
- MIC [8]: 0.078 µg/mL (≈ 0.212 µM)
- MIC [9, 39]: 0.156 µg/mL (≈ 0.423 µM)
- MIC [9, 40]: 0.039 µg/mL (≈ 0.106 µM)
- MIC [10, 39]: 0.156 µg/mL (≈ 0.423 µM)
- MIC [10, 40]: 0.039 µg/mL (≈ 0.106 µM)
- MIC [11]: 2.5 µg/mL (≈ 6.78 µM)
- MIC [12]: 1.25 µg/mL (≈ 3.39 µM)
- MIC [13]: > 10 µg/mL
- MIC [14]: > 10 µg/mL
- MIC [15]: 0.039 µg/mL (≈ 0.106 µM)
- MIC ([16]; M. alkalescens NCTC 10135, Agar (serial dilution in Friis' agar), read-out: MIC): 0.078 µg/mL (≈ 0.212 µM)
- MIC [17]: 0.078 µg/mL (≈ 0.212 µM)
- MIC [18]: > 80 µg/mL
- MIC [19]: 40 µg/mL (≈ 109 µM)
- MIC [20]: 2.5 µg/mL (≈ 6.78 µM)
- MIC [21]: 0.312 µg/mL (≈ 0.847 µM)
- MIC [22]: 20 µg/mL (≈ 54.3 µM)
- MIC [23]: 0.625 µg/mL (≈ 1.7 µM)
- MIC [24]: 0.625 µg/mL (≈ 1.7 µM)
- MIC [25]: 1.25 µg/mL (≈ 3.39 µM)
- MIC [26]: 5 µg/mL (≈ 13.6 µM)
- MIC [27]: 5 µg/mL (≈ 13.6 µM)
- MIC [28]: 2.5 µg/mL (≈ 6.78 µM)
- MIC [29]: 0.5 µg/mL (≈ 1.36 µM)
- MIC [30]: 0.05 µg/mL (≈ 0.136 µM)
- MIC [31]: 1 µg/mL (≈ 2.71 µM)
- MIC [32]: 0.1 µg/mL (≈ 0.271 µM)
- MIC [33]: 1 µg/mL (≈ 2.71 µM)
- MIC [34]: 2.5 µg/mL (≈ 6.78 µM)
- MIC [35]: 2.5 µg/mL (≈ 6.78 µM)
- MIC [36]: 10 µg/mL (≈ 27.1 µM)
- MIC [37]: 2.5 µg/mL (≈ 6.78 µM)

SMILES: C/C(=C\C(=O)OCC(C)C)CC1OCC(C/C=C/C(C)C(C)O)C(O)C1O (centres unmarked) [Isobutyl, Isobutyl Monate C]
- MIC ([1]; STR.11): 1.25 µg/mL (≈ 3.25 µM)
- MIC ([2]; J2206/183B): 1.25 µg/mL (≈ 3.25 µM)
- MIC [3]: 0.312 µg/mL (≈ 0.811 µM)
- MIC [4]: 0.312 µg/mL (≈ 0.811 µM)
- MIC [5, 39]: 10 µg/mL (≈ 26 µM)
- MIC [5, 40]: 1.25 µg/mL (≈ 3.25 µM)
- MIC [6, 39]: 10 µg/mL (≈ 26 µM)
- MIC [6, 40]: 2.5 µg/mL (≈ 6.5 µM)
- MIC [7]: 0.156 µg/mL (≈ 0.406 µM)
- MIC [8]: 0.156 µg/mL (≈ 0.406 µM)
- MIC [9, 39]: 0.312 µg/mL (≈ 0.811 µM)
- MIC [9, 40]: 0.039 µg/mL (≈ 0.101 µM)
- MIC [10, 39]: 0.078 µg/mL (≈ 0.203 µM)
- MIC [10, 40]: < 0.02 µg/mL
- MIC [11]: 2.5 µg/mL (≈ 6.5 µM)
- MIC [12]: 0.625 µg/mL (≈ 1.63 µM)
- MIC [13]: 5 µg/mL (≈ 13 µM)
- MIC [14]: > 10 µg/mL
- MIC [15]: 0.078 µg/mL (≈ 0.203 µM)
- MIC [16]: 0.156 µg/mL (≈ 0.406 µM)
- MIC [17]: 0.078 µg/mL (≈ 0.203 µM)
- MIC [18]: > 80 µg/mL
- MIC [19]: 40 µg/mL (≈ 104 µM)
- MIC [20]: 10 µg/mL (≈ 26 µM)
- MIC [21]: 10 µg/mL (≈ 26 µM)
- MIC [22]: 80 µg/mL (≈ 208 µM)
- MIC [23]: 1.25 µg/mL (≈ 3.25 µM)
- MIC [24]: 1.25 µg/mL (≈ 3.25 µM)
- MIC [25]: 1.25 µg/mL (≈ 3.25 µM)
- MIC [26]: 5 µg/mL (≈ 13 µM)
- MIC [27]: 10 µg/mL (≈ 26 µM)
- MIC [28]: 5 µg/mL (≈ 13 µM)
- MIC [29]: 1 µg/mL (≈ 2.6 µM)
- MIC [38]: 1 µg/mL (≈ 2.6 µM)
- MIC [30]: 1 µg/mL (≈ 2.6 µM)
- MIC [31]: 1 µg/mL (≈ 2.6 µM)
- MIC [32]: 0.5 µg/mL (≈ 1.3 µM)
- MIC [33]: 1 µg/mL (≈ 2.6 µM)
- MIC [34]: 10 µg/mL (≈ 26 µM)
- MIC [35]: 25 µg/mL (≈ 65 µM)
- MIC [36]: 25 µg/mL (≈ 65 µM)
- MIC [37]: 5 µg/mL (≈ 13 µM)
